{"source": "patent US9028845B2", "about": "“Chimeric immunomodulatory compounds and methods of using the same-IV” (Dynavax Technologies Corporation, priority 2001, dated 2015)", "tested_on": "human PBMCs", "assay": "Human PBMC cytokine response assay (IFN-γ and IFN-α in cell-free medium by ELISA), with or without cPLGA;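 as to IFN-α (pg/ml) mean: 20 µg/mL compound for 24 hours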;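 as to IFN-γ (pg/ml) mean: 20 µg/mL compound for 24 hours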", "assay_type": "cell-based", "key": {"[1]": {"conditions": "Table 24, mean of donors 28234-28237"}, "[2]": {"conditions": "Table 25, mean of donors 28250-28253"}, "[3]": {"conditions": "donor 28066, 20 ug/ml, 24 h, + PLGA = premixed with 100 μg/ml cPLGA"}, "[4]": {"conditions": "donor 28067, 20 ug/ml, 24 h, + PLGA = premixed with 100 μg/ml cPLGA"}, "[5]": {"conditions": "donor 28068, 20 ug/ml, 24 h, + PLGA = premixed with 100 μg/ml cPLGA"}, "[6]": {"conditions": "mean of Donors 1-2, 20 μg/ml, 24 h"}, "[7]": {"conditions": "mean of Donors 3-4, 20 μg/ml, 24 h"}, "[8]": {"conditions": "mean of Donors 5-6, 20 μg/ml (mixtures: 20 μg/ml total), 24 h"}, "[9]": {"conditions": "mean of Donors 7-8, 20 μg/ml, 24 h"}, "[10]": {"conditions": "mean of Donors 9-12, 20 μg/ml, 24 h"}, "[11]": {"conditions": "mean of donors 110, 112, 119, 120, Table 14"}, "[12]": {"conditions": "mean of donors 28057-28060, Table 16"}, "[13]": {"conditions": "mean of donors 28065-28068, 20 ug/ml, 24 h, + PLGA = premixed with 100 μg/ml cPLGA"}, "[14]": {"conditions": "mean of donors 28185-28188, Table 15"}, "[15]": {"conditions": "mean of donors 28218-28221, 20 μg/ml, 24 h"}}, "note": "Strand notation (5' to 3'): a small letter for the sugar, then the base; units joined by * are phosphorothioate-linked, units joined directly phosphodiester-linked; [ ] holds rarer units or linkages, { } end groups; capitals alone tell only the bases. d = 2'-deoxy (DNA)", "data": [{"substance": "5′-TGACTGTGAACCTTAGAGATGA-3′ (SEQ ID NO: 3) (dT*dG*dA*dC*dT*dG*dT*dG*dA*dA*dC*dC*dT*dT*dA*dG*dA*dG*dA*dT*dG*dA) [Compound P-7, negative control, reference compound]", "values": [{"measurement": "IFN-γ mean", "setting": "Table 11, mean of donors", "value": 34, "unit": "pg/mL"}, {"measurement": "IFN-α", "setting": "Table 24, donor 28234", "value": 62, "unit": "pg/mL"}, {"measurement": "IFN-γ", "setting": "Table 24, donor 28234", "value": 13, "unit": "pg/mL"}, {"measurement": "IFN-α", "setting": "Table 24, donor 28235", "value": 16, "unit": "pg/mL"}, {"measurement": "IFN-γ", "setting": "Table 24, donor 28235", "value": 4, "unit": "pg/mL"}, {"measurement": "IFN-α", "setting": "Table 24, donor 28236", "value": 16, "unit": "pg/mL"}, {"measurement": "IFN-γ", "setting": "Table 24, donor 28236", "value": 7, "unit": "pg/mL"}, {"measurement": "IFN-α", "setting": "Table 24, donor 28237", "value": 16, "unit": "pg/mL"}, {"measurement": "IFN-γ", "setting": "Table 24, donor 28237", "value": 4, "unit": "pg/mL"}, {"measurement": "IFN-α mean", "setting": "[1]", "value": 28, "unit": "pg/mL"}, {"measurement": "IFN-γ mean", "setting": "[1]", "value": 7, "unit": "pg/mL"}, {"measurement": "IFN-a", "setting": "Table 25, donor 28250", "value": 16, "unit": "pg/mL"}, {"measurement": "IFN-g", "setting": "Table 25, donor 28250, polynucleotides/spacers at amounts equivalent to the CIC, spacers alone 9 uM", "value": 104, "unit": "pg/mL"}, {"measurement": "IFN-a", "setting": "Table 25, donor 28251", "value": 16, "unit": "pg/mL"}, {"measurement": "IFN-g", "setting": "Table 25, donor 28251", "value": 1, "unit": "pg/mL"}, {"measurement": "IFN-a", "setting": "Table 25, donor 28252", "value": 16, "unit": "pg/mL"}, {"measurement": "IFN-g", "setting": "Table 25, donor 28252", "value": 39, "unit": "pg/mL"}, {"measurement": "IFN-a", "setting": "Table 25, donor 28253", "value": 16, "unit": "pg/mL"}, {"measurement": "IFN-g", "setting": "Table 25, donor 28253", "value": 1, "unit": "pg/mL"}, {"measurement": "IFN-a mean", "setting": "[2]", "value": 16, "unit": "pg/mL"}, {"measurement": "IFN-g mean", "setting": "[2]", "value": 36, "unit": "pg/mL"}, {"measurement": "IFN-α", "setting": "donor 110, Table 14", "value": 2, "unit": "pg/mL"}, {"measurement": "IFN-γ", "setting": "donor 110, Table 14", "value": 124, "unit": "pg/mL"}, {"measurement": "IFN-α", "setting": "donor 112, Table 14", "value": 32, "unit": "pg/mL"}, {"measurement": "IFN-γ", "setting": "donor 112, Table 14", "value": 24, "unit": "pg/mL"}, {"measurement": "IFN-α", "setting": "donor 119, Table 14", "value": 474, "unit": "pg/mL"}, {"measurement": "IFN-γ", "setting": "donor 119, Table 14", "value": 16, "unit": "pg/mL"}, {"measurement": "IFN-α", "setting": "donor 120, Table 14", "value": 2, "unit": "pg/mL"}, {"measurement": "IFN-γ", "setting": "donor 120, Table 14", "value": 40, "unit": "pg/mL"}, {"measurement": "IFN-α", "setting": "donor 28057, Table 16", "value": 0, "unit": "pg/mL"}, {"measurement": "IFN-γ", "setting": "donor 28057, Table 16", "value": 1, "unit": "pg/mL"}, {"measurement": "IFN-α", "setting": "donor 28058, Table 16", "value": 0, "unit": "pg/mL"}, {"measurement": "IFN-γ", "setting": "donor 28058, Table 16", "value": 2, "unit": "pg/mL"}, {"measurement": "IFN-α", "setting": "donor 28059, Table 16", "value": 0, "unit": "pg/mL"}, {"measurement": "IFN-γ", "setting": "donor 28059, Table 16", "value": 3, "unit": "pg/mL"}, {"measurement": "IFN-α", "setting": "donor 28060, Table 16", "value": 0, "unit": "pg/mL"}, {"measurement": "IFN-γ", "setting": "donor 28060, Table 16", "value": 4, "unit": "pg/mL"}, {"measurement": "IFN-γ (pg/ml) 28065", "setting": "donor 28065 (high background), 20 ug/ml, 24 h, + PLGA = premixed with 100 μg/ml cPLGA, 1000 = outside assay limits", "value": 397, "unit": "pg/mL"}, {"measurement": "IFN-α (pg/ml) 28065", "setting": "donor 28065, 20 ug/ml, 24 h, + PLGA = premixed with 100 μg/ml cPLGA", "value": 0, "unit": "pg/mL"}, {"measurement": "IFN-α (pg/ml) 28066", "setting": "[3]", "value": 8, "unit": "pg/mL"}, {"measurement": "IFN-γ (pg/ml) 28066", "setting": "[3]", "value": 1, "unit": "pg/mL"}, {"measurement": "IFN-α (pg/ml) 28067", "setting": "[4]", "value": 0, "unit": "pg/mL"}, {"measurement": "IFN-γ (pg/ml) 28067", "setting": "[4]", "value": 8, "unit": "pg/mL"}, {"measurement": "IFN-α (pg/ml) 28068", "setting": "[5]", "value": 3, "unit": "pg/mL"}, {"measurement": "IFN-γ (pg/ml) 28068", "setting": "[5]", "value": 15, "unit": "pg/mL"}, {"measurement": "IFN-a", "setting": "donor 28185, Table 15", "value": 4, "unit": "pg/mL"}, {"measurement": "IFN-g", "setting": "donor 28185, Table 15", "value": 0, "unit": "pg/mL"}, {"measurement": "IFN-a", "setting": "donor 28186, Table 15", "value": 25, "unit": "pg/mL"}, {"measurement": "IFN-g", "setting": "donor 28186, Table 15", "value": 4, "unit": "pg/mL"}, {"measurement": "IFN-a", "setting": "donor 28187, Table 15", "value": 5, "unit": "pg/mL"}, {"measurement": "IFN-g", "setting": "donor 28187, Table 15", "value": 19, "unit": "pg/mL"}, {"measurement": "IFN-a", "setting": "donor 28188, Table 15", "value": 31, "unit": "pg/mL"}, {"measurement": "IFN-g", "setting": "donor 28188, Table 15", "value": 2, "unit": "pg/mL"}, {"measurement": "IFN-a (pg/ml) 28218", "setting": "donor 28218, 20 μg/ml, 24 h", "value": 32, "unit": "pg/mL"}, {"measurement": "IFN-g (pg/ml) 28218", "setting": "donor 28218, 20 μg/ml, 24 h", "value": 5, "unit": "pg/mL"}, {"measurement": "IFN-a (pg/ml) 28219", "setting": "donor 28219, 20 μg/ml, 24 h", "value": 32, "unit": "pg/mL"}, {"measurement": "IFN-g (pg/ml) 28219", "setting": "donor 28219, 20 μg/ml, 24 h", "value": 5, "unit": "pg/mL"}, {"measurement": "IFN-a (pg/ml) 28220", "setting": "donor 28220, 20 μg/ml, 24 h", "value": 32, "unit": "pg/mL"}, {"measurement": "IFN-g (pg/ml) 28220", "setting": "donor 28220, 20 μg/ml, 24 h", "value": 5, "unit": "pg/mL"}, {"measurement": "IFN-a (pg/ml) 28221", "setting": "donor 28221, 20 μg/ml, 24 h", "value": 32, "unit": "pg/mL"}, {"measurement": "IFN-g (pg/ml) 28221", "setting": "donor 28221, 20 μg/ml, 24 h", "value": 5, "unit": "pg/mL"}, {"measurement": "IFN-α (pg/ml) mean", "setting": "[6]", "value": 0, "unit": "pg/mL"}, {"measurement": "IFN-γ (pg/ml) mean", "setting": "[6]", "value": 231, "unit": "pg/mL"}, {"measurement": "IFN-α (pg/ml) mean", "setting": "[7]", "value": 15, "unit": "pg/mL"}, {"measurement": "IFN-γ (pg/ml) mean", "setting": "[7]", "value": 5, "unit": "pg/mL"}, {"measurement": "IFN-α (pg/ml) mean", "setting": "[8]", "value": 57, "unit": "pg/mL"}, {"measurement": "IFN-γ (pg/ml) mean", "setting": "[8]", "value": 37, "unit": "pg/mL"}, {"measurement": "IFN-α (pg/ml) mean", "setting": "[9]", "value": 0, "unit": "pg/mL"}, {"measurement": "IFN-γ (pg/ml) mean", "setting": "[9]", "value": 2, "unit": "pg/mL"}, {"measurement": "IFN-α mean", "setting": "[10]", "value": 2}, {"measurement": "IFN-γ mean", "setting": "[10]", "value": 3}, {"measurement": "IFN-α (pg/ml) mean", "setting": "[11]", "value": 128, "unit": "pg/mL"}, {"measurement": "IFN-γ (pg/ml) mean", "setting": "[11]", "value": 51, "unit": "pg/mL"}, {"measurement": "IFN-α (pg/ml) mean", "setting": "[12]", "value": 0, "unit": "pg/mL"}, {"measurement": "IFN-γ (pg/ml) mean", "setting": "[12]", "value": 2, "unit": "pg/mL"}, {"measurement": "IFN-α (pg/ml) mean", "setting": "[13]", "value": 3, "unit": "pg/mL"}, {"measurement": "IFN-γ (pg/ml) mean", "setting": "[13]", "value": 105, "unit": "pg/mL"}, {"measurement": "IFN-a (pg/ml) mean", "setting": "[14]", "value": 16, "unit": "pg/mL"}, {"measurement": "IFN-g (pg/ml) mean", "setting": "[14]", "value": 6, "unit": "pg/mL"}, {"measurement": "IFN-a (pg/ml) mean", "setting": "[15]", "value": 32, "unit": "pg/mL"}, {"measurement": "IFN-g (pg/ml) mean", "setting": "[15]", "value": 5, "unit": "pg/mL"}, {"measurement": "IFN-a (pg/ml) ×2", "setting": "mean ×2, Table 15", "value": 32, "unit": "pg/mL"}, {"measurement": "IFN-g (pg/ml) ×4", "setting": "mean ×4, Table 15", "value": 25, "unit": "pg/mL"}, {"measurement": "immunomodulatory activity (IFN-γ / IFN-α secretion), in words", "setting": "used alone (no cPLGA)", "value": "no activity"}]}]}
